# Reference: patent publication US9096624B2 (OSI Pharmaceuticals, LLC, priority 2009, dated 2015)
# What was measured:
# FAK [1] = molecular target: T1, FAK (Homo sapiens, UniProt Q05397); assay: biochemical
# FAK [2] = molecular target: T1, FAK; assay: Cell-based capture ELISA for inhibition of FAK autophosphorylation [pY397] in U87MG cells; details: Mean FAK Cell Mechanistic IC50 + 50% mP U87MG, + 50% mouse plasma
# T1 sequence (Q05397 whole entry): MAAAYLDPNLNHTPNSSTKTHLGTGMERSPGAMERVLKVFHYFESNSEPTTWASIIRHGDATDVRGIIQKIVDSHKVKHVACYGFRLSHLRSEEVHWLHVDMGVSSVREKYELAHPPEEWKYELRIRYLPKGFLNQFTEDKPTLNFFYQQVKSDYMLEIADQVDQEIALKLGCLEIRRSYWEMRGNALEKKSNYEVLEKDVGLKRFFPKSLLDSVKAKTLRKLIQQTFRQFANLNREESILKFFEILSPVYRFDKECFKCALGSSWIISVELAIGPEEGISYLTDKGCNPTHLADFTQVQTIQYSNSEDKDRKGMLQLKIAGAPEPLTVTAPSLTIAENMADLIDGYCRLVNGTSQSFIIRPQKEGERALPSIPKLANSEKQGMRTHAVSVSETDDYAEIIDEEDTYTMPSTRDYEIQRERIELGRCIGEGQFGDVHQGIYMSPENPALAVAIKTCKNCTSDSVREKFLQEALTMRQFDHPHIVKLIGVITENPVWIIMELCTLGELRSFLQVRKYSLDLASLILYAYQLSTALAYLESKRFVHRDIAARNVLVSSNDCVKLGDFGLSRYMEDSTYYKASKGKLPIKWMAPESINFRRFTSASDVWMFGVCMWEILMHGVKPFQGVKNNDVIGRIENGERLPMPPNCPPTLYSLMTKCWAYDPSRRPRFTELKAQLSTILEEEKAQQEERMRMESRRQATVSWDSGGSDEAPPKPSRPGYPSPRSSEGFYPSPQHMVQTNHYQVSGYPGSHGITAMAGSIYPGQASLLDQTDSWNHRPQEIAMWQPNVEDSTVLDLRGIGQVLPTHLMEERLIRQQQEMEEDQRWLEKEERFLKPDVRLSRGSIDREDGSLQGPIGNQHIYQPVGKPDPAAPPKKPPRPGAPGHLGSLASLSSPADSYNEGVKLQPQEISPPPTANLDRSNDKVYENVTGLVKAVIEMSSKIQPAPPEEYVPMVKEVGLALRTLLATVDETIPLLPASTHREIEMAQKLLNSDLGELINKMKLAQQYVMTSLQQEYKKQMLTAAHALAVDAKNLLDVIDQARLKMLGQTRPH
SMILES,IC50 (FAK [1]),IC50 (FAK [2])
"CCOP(=O)(Cc1ccc(Nc2ncc(C(F)(F)F)c(Nc3ccc([C@H]4CC[C@H](OCOP(=O)(O)O)CC4)c4c3C(=O)N(C)C4)n2)c(OC)c1)OCC [Example 288, {[trans-4-(7-{[2-({4-[(diethoxyphosphoryl)methyl]-2-methoxyphenyl}amino)-5-(trifluoromethyl)pyrimidin-4-yl]amino}-2-methyl-1-oxo-2,3-dihydro-1H-isoindol-4-yl)cyclohexyl]oxy}methyl phosphate]",< 1000 nM,< 1000 nM
"CCOP(=O)(Cc1ccc(Nc2ncc(C(F)(F)F)c(Nc3ccc([C@H]4CC[C@H](O)CC4)cc3C(=O)N(C)C)n2)c(OC)c1)OCC [Example 195, diethyl (4-{[4-{[2-(dimethylcarbamoyl)-4-(trans-4-hydroxycyclohexyl)phenyl]amino}-5-(trifluoromethyl)pyrimidin-2-yl]amino}-3-methoxybenzyl)phosphonate]",< 1000 nM,1000 to 10000 nM
"CCOP(=O)(Cc1ccc(Nc2ncc(C(F)(F)F)c(Nc3ccc([C@H]4CC[C@@H](C(=O)N(C)C)CC4)c4c3C(=O)N(C)C4)n2)c(OC)c1)OCC [Example 273, Diethyl (4-{[4-({7-[cis-4-(dimethylcarbamoyl)cyclohexyl]-2-methyl-3-oxo-2,3-dihydro-1H-isoindol-4-yl}amino)-5-(trifluoromethyl)pyrimidin-2-yl]amino}-3-methoxybenzyl)phosphonate]",< 1000 nM,< 1000 nM
"CCOC(=O)[C@H]1CC[C@H](c2ccc(Nc3nc(Nc4ccc(CP(=O)(OCC)OCC)cc4OC)ncc3C(F)(F)F)c3c(=O)c(C)c[nH]c32)CC1 [Example 304, Ethyl trans-4-(5-{[2-({4-[(diethoxyphosphoryl)methyl]-2-methoxyphenyl}amino)-5-(trifluoromethyl)pyrimidin-4-yl]amino}-3-methyl-4-oxo-1,4-dihydroquinolin-8-yl)cyclohexanecarboxylate]",< 1000 nM,< 1000 nM
"CCOP(=O)(Cc1ccc(Nc2ncc(C(F)(F)F)c(Nc3ccc([C@H]4CC[C@H](O)CC4)c4c3C(=O)N(C)C4)n2)c(OC)n1)OCC [Example 286, Diethyl [(5-{[4-{[7-(trans-4-hydroxycyclohexyl)-2-methyl-3-oxo-2,3-dihydro-1H-isoindol-4-yl]amino}-5-(trifluoromethyl)pyrimidin-2-yl]amino}-6-methoxypyridin-2-yl)methyl]phosphonate]",< 1000 nM,< 1000 nM
"CCOP(=O)(Cc1cnc(Nc2ncc(C(F)(F)F)c(Nc3ccc([C@H]4CC[C@H](O)CC4)c4c3C(=O)N(C)C4)n2)c(OC)c1)OCC [Example 308, Diethyl [(6-{[4-{[7-(trans-4-hydroxycyclohexyl)-2-methyl-3-oxo-2,3-dihydro-1H-isoindol-4-yl]amino}-5-(trifluoromethyl)pyrimidin-2-yl]amino}-5-methoxypyridin-3-yl)methyl]phosphonate]",< 1000 nM,1000 to 10000 nM
CCOC(=O)Cn1cc(C)c(=O)c2c(Nc3nc(Nc4ccc(CP(=O)(OCC)OCC)cc4OC)ncc3C(F)(F)F)cccc21 [Example 301],< 1000 nM,< 1000 nM
CCOP(=O)(Cc1ccc(Nc2ncc(C(F)(F)F)c(Nc3c4c(cc[n+]3[O-])CN(C)C4=O)n2)c(OC)c1)OCC [Example 310],< 1000 nM,1000 to 10000 nM
"CCOP(=O)(Cc1ccc(Nc2ncc(C(F)(F)F)c(Nc3cccc4c3c(=O)c(C)cn4C)n2)c(OC)c1)OCC [Example 300, Diethyl [4-({4-[(1,3-dimethyl-4-oxo-1,4-dihydroquinolin-5-yl)amino]-5-(trifluoromethyl)pyrimidin-2-yl}amino)-3-methoxybenzyl]phosphonate]",< 1000 nM,< 1000 nM
"CCOP(=O)(Cc1ccc(Nc2ncc(C(F)(F)F)c(Nc3ccc(C4CCC(O)(C(=O)O)CC4)c4c3C(=O)N(C)C4)n2)c(OC)c1)OCC (single isomer, unassigned) [Example 278, 4-(7-{2-[4-(Diethoxy-phosphorylmethyl)-2-methoxy-phenylamino]-5-trifluoromethyl-pyrimidin-4-ylamino}-2-methyl-1-oxo-2,3-dihydro-1H-isoindol-4-yl)-1-hydroxy-cyclohexanecarboxylic acid]",< 1000 nM,1000 to 10000 nM
"CCOP(=O)(Cc1ccc(Nc2ncc(C(F)(F)F)c(Nc3ccc(N4CCNC(C(=O)O)C4)c4c3C(=O)N(C)C4)n2)c(OC)c1)OCC (stereo not shown) [Example 287, 4-(7-{[2-({4-[(Diethoxyphosphoryl)methyl]-2-methoxyphenyl}amino)-5-(trifluoromethyl)pyrimidin-4-yl]amino}-2-methyl-1-oxo-2,3-dihydro-1H-isoindol-4-yl)piperazine-2-carboxylic acid]",< 1000 nM,1000 to 10000 nM
CCOP(=O)(Cc1ccc(Nc2ncc(C(F)(F)F)c(Nc3nccc4c3C(=O)N(C)C4)n2)c(OC)c1)OCC [Example 311],< 1000 nM,1000 to 10000 nM
"CCOP(=O)(Cc1ccc(Nc2ncc(C(F)(F)F)c(Nc3ccc(C4CCNCC4)c4c3C(=O)N(C)C4)n2)c(OC)c1)OCC [Example 263, Diethyl (3-methoxy-4-{[4-{[2-methyl-3-oxo-7-(piperidin-4-yl)-2,3-dihydro-1H-isoindol-4-yl]amino}-5-(trifluoromethyl)pyrimidin-2-yl]amino}benzyl)phosphonate]",< 1000 nM,< 1000 nM
"CCOP(=O)(Cc1ccc(Nc2ncc(C(F)(F)F)c(Nc3c(F)cccc3C(=O)NC)n2)c(OC)c1)OCC [Example 154, Diethyl (4-{[4-{[2-fluoro-6-(methylcarbamoyl)phenyl]amino}-5-(trifluoromethyl)pyrimidin-2-yl]amino}-3-methoxybenzyl)phosphonate]",< 1000 nM,< 1000 nM
"CCOP(=O)(Cc1ccc(Nc2ncc(C(F)(F)F)c(Nc3ccc([C@H]4CC[C@@H](C(N)=O)CC4)c4c3C(=O)N(C)C4)n2)c(OC)c1)OCC [Example 272, Diethyl (4-{[4-{[7-(cis-4-carbamoylcyclohexyl)-2-methyl-3-oxo-2,3-dihydro-1H-isoindol-4-yl]amino}-5-(trifluoromethyl)pyrimidin-2-yl]amino}-3-methoxybenzyl)phosphonate]",< 1000 nM,< 1000 nM
"CCOP(=O)(Cc1ccc(Nc2ncc(C(F)(F)F)c(Nc3ccc(C4CCN(C)CC4)c4c3C(=O)N(C)C4)n2)c(OC)c1)OCC [Example 269, Diethyl (3-methoxy-4-{[4-{[2-methyl-7-(1-methylpiperidin-4-yl)-3-oxo-2,3-dihydro-1H-isoindol-4-yl]amino}-5-(trifluoromethyl)pyrimidin-2-yl]amino}benzyl)phosphonate]",< 1000 nM,< 1000 nM
"CCOP(=O)(Cc1ccc(Nc2ncc(C(F)(F)F)c(Nc3ccc(C4=CCNCC4)c4c3C(=O)N(C)C4)n2)c(OC)c1)OCC [Example 262, Diethyl (3-methoxy-4-{[4-{[2-methyl-3-oxo-7-(1,2,3,6-tetrahydropyridin-4-yl)-2,3-dihydro-1H-isoindol-4-yl]amino}-5-(trifluoromethyl)pyrimidin-2-yl]amino}benzyl)phosphonate]",< 1000 nM,< 1000 nM
"CCOP(=O)(Cc1ccc(Nc2ncc(C(F)(F)F)c(Nc3ccc(-c4cnn(CCCO)c4)c4c3C(=O)N(C)C4)n2)c(OC)c1)OCC [Example 289, Diethyl (4-{[4-({7-[1-(3-hydroxypropyl)-1H-pyrazol-4-yl]-2-methyl-3-oxo-2,3-dihydro-1H-isoindol-4-yl}amino)-5-(trifluoromethyl)pyrimidin-2-yl]amino}-3-methoxybenzyl)phosphonate]",< 1000 nM,< 1000 nM
"CCOP(=O)(Cc1ccc(Nc2ncc(C(F)(F)F)c(Nc3ccc([C@H]4CC[C@@H](C(=O)NC)CC4)c4c3C(=O)N(C)C4)n2)c(OC)c1)OCC [Example 271, Diethyl (3-methoxy-4-{[4-({2-methyl-7-[cis-4-(methylcarbamoyl)cyclohexyl]-3-oxo-2,3-dihydro-1H-isoindol-4-yl}amino)-5-(trifluoromethyl)pyrimidin-2-yl]amino}benzyl) phosphonate]",< 1000 nM,< 1000 nM
"CCOP(=O)(Cc1ccc(Nc2ncc(C(F)(F)F)c(Nc3ccc([C@H]4CC[C@@H](C(=O)NOC)CC4)c4c3C(=O)N(C)C4)n2)c(OC)c1)OCC [Example 276, Diethyl (3-methoxy-4-{[4-({7-[cis-4-(methoxycarbamoyl)cyclohexyl]-2-methyl-3-oxo-2,3-dihydro-1H-isoindol-4-yl}amino)-5-(trifluoromethyl)pyrimidin-2-yl]amino}benzyl)phosphonate]",< 1000 nM,< 1000 nM
"CCOC(=O)[C@H]1CC[C@@H](c2ccc(Nc3nc(Nc4ccc(CP(=O)(OCC)OCC)cc4OC)ncc3C(F)(F)F)c3c(=O)c(C)c[nH]c32)CC1 [Example 305, Ethyl cis-4-(5-{[2-({4-[(diethoxyphosphoryl)methyl]-2-methoxyphenyl}amino)-5-(trifluoromethyl)pyrimidin-4-yl]amino}-3-methyl-4-oxo-1,4-dihydroquinolin-8-yl)cyclohexanecarboxylate]",< 1000 nM,< 1000 nM
"CCOP(=O)(Cc1ccc(Nc2ncc(C(F)(F)F)c(Nc3cccc(F)c3C(=O)NC)n2)c(OC)c1)OCC [Example 155, diethyl (4-{[4-{[3-fluoro-2-(methylcarbamoyl)phenyl]amino}-5-(trifluoromethyl)pyrimidin-2-yl]amino}-3-methoxybenzyl)phosphonate]",< 1000 nM,< 1000 nM
"CCOP(=O)(Cc1ccc(Nc2ncc(C(F)(F)F)c(Nc3ccc([C@H]4CC[C@H](C(=O)O)CC4)c4c3C(=O)N(C)C4)n2)cn1)OCC [Example 268, trans-4-(7-{[2-({6-[(diethoxyphosphoryl)methyl]pyridin-3-yl}amino)-5-(trifluoromethyl)pyrimidin-4-yl]amino}-2-methyl-1-oxo-2,3-dihydro-1H-isoindol-4-yl)cyclohexanecarboxylic acid]",1000 to 10000 nM,1000 to 10000 nM
